Tests used:
[1] = MTT: Cell Damaging and Protecting Effect Test; assay type: cell-based, Japanese White rabbit; details: rabbit, gastric mucosa cells, 10^-4 M, 37° C., smaller value is better, read-out: MTT: cell damaging rate
Description: MTT: Cell Damaging and Protecting Effect Test
It is confirmed that there is no toxicity in cell level. Those having a toxicity in cell level are inappropriate as an anti-ulcer drug.
A male Japanese White rabbit (2.5 to 3 kg) was anesthetized to death by Nembutal™ and, immediately thereafter, its stomach was removed. The greater curvature of the stomach was incised so as to remove the stomach contents therefrom. After the mucosal surface was washed with HBSS (Hanks' Balanced Salt Solution), the stomach in ice-cooled HBSS was transferred to a laboratory. Then, after the pyloric antrum was removed, the gastric corpus mucosa was separated by a spatula and then minced into 2 to 3 mm^3 pieces in BME (Basal Medium Eagle). Thereafter, these pieces were shaken at 120 to 130 cycles/minute for 15 minutes at 37° C. in BME 60 ml containing 280 U/ml of dispase and 30 to 50 U/ml of collagenase. Here, the concentration of collagenase was appropriately changed for each lot in view of the state of cells. The pieces were washed twice with EBSS (Earle's Balanced Salt Solution) containing 1 mM of EDTA and then shaken in MEM (Minimum Essential Medium) containing 1 mM of EDTA at 37° C. for 5 minutes. Subsequently, they were shaken in the dispase and collagenase having the same concentrations as those mentioned above for 15 minutes so as to remove the supernatant and then further shaken at 37° C. for 50 to 60 minutes at 120 to 130 cycles/minute. Then, after being washed twice with HBSS, Ham F12 containing 2% of Ultrocer GT™ was used to attain the concentration of 1×10^6 cells/ml. Thus formed suspension was dispensed in each well of a 96-well plate by 200 μl. The plate was incubated in the atmosphere composed of 5% CO2 and 95% air at 37° C. for three days so as to attain a confluent state and then subjected to MTT assay.
The sample compound was dissolved in DMSO so as to attain a concentration of 10^-2 M and then diluted with HBSS containing 2% of Ultrocer G™ so as to attain a final concentration of 10^-4 M. To each group, which 8 wells were used for, 10 μl of MTT reagent was added immediately after 100 μl of the medium in each well was exchanged for same volume of the resulting solution of the sample compound. After being incubated in an atmosphere composed of 5% CO2 and 95% air at 37° C. for 4 hours, thus formed solution was centrifuged and then its supernatant was discarded. Subsequently, 100 μl of 100% ethanol was added to the residue so as to dissolve MTT formazan. Then, the absorbance (OD: 570 to 630) was measured by a microplate reader. This method utilizes a phenomenon in which MTT is changed to MTT formazan only by mitochondria of living cells so as to change color.
The cell damaging or cell protecting effect of the sample compound at the final concentration of 10^-4 M was expressed as cell damaging rate (%) as follows:
cell damaging rate (%)=(1-(absorbance in sample group/absorbance in control
Accordingly, the smaller value is better in the cell damaging rate.

[2] = system: stress ulcer formation (rats); experiment: WIS: Restraint and Water Immersion Stress-Induced Ulcer Inhibition Test; assay type: in vivo, rat (male Crj:SD or Slc:SD); details: rat, 100 mg/kg, oral, 7 hours water immersion stress
Procedure: WIS: Restraint and Water Immersion Stress-Induced Ulcer Inhibition Test
The degree of inhibition of the stress ulcer formation is tested.
Male Crj:SD or Slc:SD rats (6 to 7-week-old) were fasted overnight, but allowed free access to water. Each group has 5 to 8 of these rats. […] To a control group, the vehicle was administered. 10 minutes later, the rats were placed in a stress cage and immersed to the level of xipfoid process in a water bath (21° C.) for 7 hours. At the end of the stress, the rats were sacrificed by inhalation of ether or carbon dioxide. Then, the stomach of each was removed, inflated by injecting 10 ml of 5% formalin neutral buffer solution, and immersed in 1% formalin neutral buffer solution for 30 minutes or more to be fixed. The stomach was incised along the greater curvature and then the length of each erosion in the glandular portion was determined under dissecting microscope. The sum of the length of erosions per stomach was defined as ulcer index (UI).
The effect obtained when 100 mg/kg of the sample compound had been administered was expressed as ulcer formation inhibitory rate (%) as follows:
ulcer formation inhibitory rate (%)=(1-(UI in sample group/UI in control

mice = details: mouse, in vivo
Procedure: AT: Single Dose Toxicity Pretest
Male Slc:ICR mice (5-week-old) were used. Each group has 3 to 5 mice and each mouse was fasted, but allowed free access to water, for 4 to 5 hours from 9 a.m. in the test day. Then, 2,000 mg/10 ml/kg of the sample compound dissolved or suspended in an aqueous solution of 0.5% sodium carboxymethyl cellulose was orally administered thereto. To a control, only the vehicle was administered. […] The body weight was measured before and after the fasting as well as at the same time everyday. The dead animals were immediately subjected to autopsy and their organs were observed microscopically. Also, the living animals were sacrificed with ether or carbon dioxide one week after the administration and then their organs were observed microscopically.
The toxicity at the single dose of 2,000 mg/kg of the sample compound was expressed as being classified into 5 levels.
5: Mortality rate is 0%; no toxicity is found at all both in behavior and organs.
4: Mortality rate is 0%; while no toxicity is found in organs, slight toxicity is observed in behavior and body weight increase.
3: While there is a dead animal (though not all the animals are dead), no toxicity is found in organs.
2: Regardless of whether there is a dead animal or not, toxicity is found in organs.
1: All the animals are dead.

CC(C)=CCC/C(C)=C/COc1ccc(C(=O)NCCc2ccccn2)cc1 [Example 1, 2-[2-(4-geranyloxybenzoylamino)ethyl]pyridine]
cytotoxicity at 4 h, 100 µM [1]: 8%
WIS: ulcer formation inhibitory rate [2]: 50%
AT: toxicity at the single dose (5 levels) (mice): 5

CC(C)=CCC/C(C)=C/COc1ccc(C(=O)NCCc2ccncc2)cc1 [Example 2, 4-[2-(4-geranyloxybenzoylamino)ethyl]pyridine]
cytotoxicity at 4 h, 100 µM [1]: 7%
WIS: ulcer formation inhibitory rate [2]: 77%
AT: toxicity at the single dose (5 levels) (mice): 5

CC(C)=CCC/C(C)=C/COc1ccc(C(=O)NCc2ccncc2)cc1 [Example 3, 4-(4-geranyloxybenzoylaminomethyl)pyridine]
cytotoxicity at 4 h, 100 µM [1]: 16%
WIS: ulcer formation inhibitory rate [2]: 61%
AT: toxicity at the single dose (5 levels) (mice): 5

CC(C)=CCC/C(C)=C/COc1ccc(C(=O)Nc2cccnc2)cc1 [Example 4, 3-(4-geranyloxybenzoylamino)pyridine]
cytotoxicity at 4 h, 100 µM [1]: 6%
WIS: ulcer formation inhibitory rate [2]: 39%

CC(C)=CCOc1ccc(OCC=C(C)C)c(C(=O)NCCc2ccncc2)c1 [Example 6, 4-[2-(2,5-diprenyloxybenzoylamino)ethyl]pyridine]
cytotoxicity at 4 h, 100 µM [1]: -94%
WIS: ulcer formation inhibitory rate [2]: 48%

CC(C)=CCC/C(C)=C/COc1ccc(C(=O)NCCNc2cccnc2)cc1 [Example 7, 3-[2-(4-geranyloxybenzoylamino)ethylamino]pyridine]
cytotoxicity at 4 h, 100 µM [1]: 48%
WIS: ulcer formation inhibitory rate [2]: 81%

COc1ccc(NCCNC(=O)c2ccc(OC/C=C(\C)CCC=C(C)C)cc2)nc1 [Example 8, 2-[2-(4-geranyloxybenzoylamino)ethylamino]-5-methoxypyridine]
cytotoxicity at 4 h, 100 µM [1]: -45%
WIS: ulcer formation inhibitory rate [2]: 55%
AT: toxicity at the single dose (5 levels) (mice): 5

CC(C)=CCC/C(C)=C/COc1ccc(C(=O)NCCNc2cc(C)cc(C)n2)cc1 [Example 10, 2,4-dimethyl-6-[2-(4-geranyloxybenzoylamino)ethylamino]pyridine]
cytotoxicity at 4 h, 100 µM [1]: 65%
WIS: ulcer formation inhibitory rate [2]: 55%
AT: toxicity at the single dose (5 levels) (mice): 4

COc1ccc(SCCNC(=O)c2ccc(OC/C=C(\C)CCC=C(C)C)cc2)nc1 [Example 11, 2-[2-(4-geranyloxybenzoylamino)ethylthio]-5-methoxypyridine]
cytotoxicity at 4 h, 100 µM [1]: -34%
WIS: ulcer formation inhibitory rate [2]: 61%
AT: toxicity at the single dose (5 levels) (mice): 5

CC(C)=CCC/C(C)=C/COc1ccc(C(=O)NCC(=O)Nc2ccccn2)cc1 [Example 13, 2-[2-(4-geranyloxybenzoylamino)acetylamino]pyridine]
cytotoxicity at 4 h, 100 µM [1]: -36%
WIS: ulcer formation inhibitory rate [2]: 33%
AT: toxicity at the single dose (5 levels) (mice): 5
